The test system of assay [1] is cyclooxygenase. Briefly: inhibition of synthesis of cyclooxygenase products TxB2 and PGE2 (rat polymorphonuclear leukocytes). The format is cell-based. As to conditions: 10 μM, rat PMN; for % Inhibition of CO (as PGE2): negative = potentiation of PGE2 synthesis. Put shortly:
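Glycogen-elicited peritoneal PMN from female Wistar rats, 2×10^7 cells/ml in HBSS with Ca^++, Mg^++ and 10 mM L-cysteine, preincubated with compound 10 min at 37° C. Stimulated 10 min with A23187 (10 μM) plus 0.5 μM [14C] arachidonic acid; TxB2 and PGE2 quantified by TLC, autoradiography and scintillation counting.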

The test system of assay [2] is acute gastroirritation induced by naproxen. In words: cytoprotective activity against NSAID (naproxen)-induced acute gastroirritation in rats. It is filed as in vivo, rat. To be noted: drug 100 mg/kg peroral 1 hour before naproxen 25 mg/kg. The text has this:
The assay of Example 44 is also used to measure the cytoprotective activity of the compounds against acute gastroirritation induced by a nonsteroidal anti-inflammatory drug (NSAID).

For assay [3], the target named is T1, 5-lipoxygenase (Rattus norvegicus, UniProt P12527).
T1 construct: Peritoneal PMN are obtained from female Wistar rats (150-250 g); endogenous in cells; host or cells: rat glycogen-elicited peritoneal polymorphonuclear leukocytes, intact
T1 sequence (P12527 1-673): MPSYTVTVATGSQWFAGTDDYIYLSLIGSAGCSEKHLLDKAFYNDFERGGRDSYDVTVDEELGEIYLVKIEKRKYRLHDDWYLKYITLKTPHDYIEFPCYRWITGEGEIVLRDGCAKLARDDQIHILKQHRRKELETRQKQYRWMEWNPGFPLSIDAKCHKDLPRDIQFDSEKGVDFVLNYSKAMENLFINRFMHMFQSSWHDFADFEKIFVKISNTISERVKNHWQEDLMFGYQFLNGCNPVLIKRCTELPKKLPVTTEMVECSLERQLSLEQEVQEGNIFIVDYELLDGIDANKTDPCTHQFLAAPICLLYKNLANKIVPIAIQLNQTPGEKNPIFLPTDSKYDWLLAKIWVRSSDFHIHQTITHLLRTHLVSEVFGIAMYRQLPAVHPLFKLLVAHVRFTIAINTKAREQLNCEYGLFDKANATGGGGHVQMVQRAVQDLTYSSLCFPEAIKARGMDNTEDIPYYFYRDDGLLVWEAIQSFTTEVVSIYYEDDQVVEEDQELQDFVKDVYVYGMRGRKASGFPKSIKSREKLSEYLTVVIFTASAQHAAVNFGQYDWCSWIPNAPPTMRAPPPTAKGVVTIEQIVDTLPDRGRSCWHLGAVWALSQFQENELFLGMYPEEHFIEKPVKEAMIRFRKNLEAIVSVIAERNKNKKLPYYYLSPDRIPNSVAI
Briefly: inhibition of 5-HETE synthesis by rat glycogen elicited polymorphonuclear leukocytes. The format is cell-based. To be noted: 10 μM; rat PMN; negative = potentiation of 5-HETE synthesis; read-out: % Inhibition of 5-LO (as 5-HETE). Put shortly: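 Peritoneal PMN from female Wistar rats given i.p. glycogen 24 h earlier were preincubated with compound for 10 min at 37° C (2×10^7 cells/ml, 10 mM L-cysteine). They were then stimulated 10 min with 10 μM A23187 plus 0.5 μM [14C]arachidonic acid. 5-HETE was separated by TLC and quantified by scintillation.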

In assay [4] the test system is carrageenan paw edema. Briefly: rat carrageenan paw edema assay. It is filed as in vivo. As to conditions: 1 hour prior to carrageenan, rat. On the procedure: The compounds of the invention are further tested in the rat carrageenan paw edema assay to determine their ability to inhibit the acute inflammatory response.
140-180 gm male Sprague-Dawley rats, in groups of 6 animals are injected subcutaneously in the right paw with 0.1 ml of 1% carrageenan at zero time. Mercury plethysmographic readings (ml) of the paw are made at zero time and 3 hours later. Test compounds are suspended or dissolved in 0.5% methylcellulose and given perorally 1 hour prior to carrageenan administration.
The increase in paw volume (edema in ml.) produced by the carrageenan is measured. […] Unpaired Student's t-test is used to determine statistical significance.
Background: The carrageenan paw model is a standard test of acute inflammation.

The target of assay [5] is T2, LTD4 (Cavia porcellus, UniProt Q2NNR5).
T2 construct: isolated guinea pig trachea; from tissue; host or cells: guinea pig tracheal rings
T2 sequence (Q2NNR5 1-340): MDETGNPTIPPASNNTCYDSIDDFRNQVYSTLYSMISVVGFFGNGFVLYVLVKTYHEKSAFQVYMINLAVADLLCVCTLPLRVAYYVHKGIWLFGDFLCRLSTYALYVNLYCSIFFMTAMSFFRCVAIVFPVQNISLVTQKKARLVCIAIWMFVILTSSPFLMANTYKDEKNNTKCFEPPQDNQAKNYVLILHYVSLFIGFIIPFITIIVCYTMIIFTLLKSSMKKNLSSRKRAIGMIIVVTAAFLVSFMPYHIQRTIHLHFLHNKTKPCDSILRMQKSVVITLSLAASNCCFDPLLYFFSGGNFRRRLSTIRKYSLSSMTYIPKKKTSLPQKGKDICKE
Briefly: inhibition of LTD4-induced bronchospasm in guinea pigs. The format is in vivo. As to conditions: 25 mg/kg intraduodenally, 10 minutes before LTD4; guinea pig. On the procedure: The assay of this Example measures the in vivo ability of the compounds of the invention to inhibit the bronchospasm induced in guinea pigs by the exogenously administered leukotrienes C4 and/or D4.
Male Hartley strain guinea pigs (350-600 g) are anesthetized with pentobarbital sodium (50 mg/kg, i.p.). The jugular vein is cannulated for injection of drugs and the carotid artery for monitoring blood pressure. The trachea is cannulated for artificial ventilation by a miniature Starling pump and for indirect measurement of respiratory volume changes. The animals are then pretreated with succinylcholine (2 mg/kg i.v.) and indomethacin (10 mg/kg i.v.) in trizma 8.3 buffer, 9 minutes prior to leukotriene challenge. Submaximal bronchoconstrictor responses are established in control animals by varying the dose-levels of leukotriene. Intravenous dose-levels for LTC4 range from 0.4 to 0.6 μg/kg and for LTD4 the range is from 0.3 to 0.5 μg/kg. The aerosol bronchoprovocation dose for LTC4 is generated from 1.6 μM solution and for LTD4 from a 2.0 μM solution.
Test drugs (dissolved in a solvent such as propylene glycol, polyethylene glycol 400 or saline) are administered either intraduodenally, by aerosol or intragastrically at 2 or 10 minutes before induction of bronchospasm by administration of either LTC4 or LTD4 at the predetermined dose-levels. Aerosols of soluble drugs or leukotrienes are produced in-line for 10 seconds only by actuation of an ultrasonic nebulizer (Monaghan). Aerosolized drug dosage is expressed in terms of solution concentration and by a fixed aerosol exposure time (approximately 10 seconds). Control animals receive solvent (2 ml/kg i.d. or appropriate aerosol) in place of drug.
Respiratory volume changes are determined by a calibrated piston whose travel is recorded, via a linear transducer, on a Beckman Dynograph recorder. Maximal bronchoconstrictor volume is determined by clamping off the trachea at the end of the experiment. Overflow volumes at 1,3 and 5 minutes are obtained from the recorded charts.
Area under the volume overflow curve (AUC) is estimated, using the overflow values at 1,3 and 5 minutes, and expressed as a percentage of the maximal overflow AUC (equation 1): [formula] Drug effects are reported as percent inhibition of % max AUC values obtained from appropriate control animals (equation 2): [formula]
Student's t-test for unpaired data is used to determine statistical signifiance (p<0.05). IC50 values can also be determined by inverse prediction from linear regression liens through points between 10 and 90% inhibition.

The subject of assay [6] is pleural inflammation. In words: reverse passive Arthus pleurisy assay, pleural inflammation. The format is in vivo. To be noted: rat. On the procedure: (§1) The compounds of the invention are further tested in the reverse passive Arthus pleurisy assay to evaluate their effectiveness in inflammatory mediator release and/or the fluid and cellular phases of an inflammatory response.
(§2) A reverse passive Arthus reaction is induced in the pleural cavity of male Lewis rats (150-200 g; fasted overnight prior to use) by the intravenous administration of bovine serum albumin (BSA; 4 mg/0.2 ml) followed 30 minutes later by the injection of rabbit anti-BSA (1 mg/0.2 ml; lyophilized IgG fraction; Organon Teknika, West Chester, PA) into the right pleural space under halothane anesthesia. Drugs or vehicle (0.5% Tween-80) control are administered orally in a volume of 1 ml/100 g body weight at 1 hour prior to the anti-BSA. Animals are sacrificed at either the time of peak eicosanoid production (i.e. 5 minutes after anti-BSA for immunoreactive TxB2, 10 minutes for immunoreactive LTB4, 20 minutes for immunoreactive LTC4) or at the time of peak neutrophil infiltration (4 hours after anti-BSA) by CO2 inhalation. The pleural cavity is then exposed, the fluid exudate removed by gentle vacuum aspiration and the volume of exudate is recorded. For the determination of cellular infiltration, the pleural cavity is rinsed with 3 ml of 0.1% EDTA in sterile saline, and the recovered wash is pooled with the exudate. Cell number is determined on a model ZBI Coulter counter. For determination of eicosanoid production, undiluted pleural exudate is microfuged and the supernatant is extracted with ethanol (8-10 times volume). Extracts are either stored at -20° C., or are evaporated to dryness under a stream of N2 and reconstituted in radioimmunoassay (RIA) buffer.
(§3) Inflammatory cells are expressed as 10^6 cells/ml, pleural exudate is expressed as ml of fluid, and the amount of eicosanoids in the pleural cavity is expressed as ng/ml of exudate. Mean±S.E.M. is determined for each group. Percent inhibition (% I) of cell number, exudate volume and eicosanoid production is calculated for vehicle-treated control groups, and the responses in drug-treated rats are then expressed as the mean $ I of control.

The test system of assay [7] is inflammatory mediator release. Briefly: reverse passive Arthus pleurisy assay, inflammatory mediator release. It is filed as in vivo, rat. To be noted: rat. The method, then: as §1
as §2, with “Drugs or vehicle (0.5% Tween-80) control are administered orally in a volume of 1 ml/100 g body weight at 1 hour prior to the anti-BSA.” left out
Eicosanoids are quantitated by RIA according to the procedure specified by the RIA kit manufacturer (Advanced Magnetics, Cambridge, MA). Briefly, 100 μl of ^3 H-labeled eicosanoid and 100 μl of specific antibody are sequentially added to 100 μl of extracted pleural exudate in BGG-phosphate buffer which contains 0.01 M phosphate, 0.1% bovine gamma globulin and 0.1% sodium azide at pH 7.0. Antibody-bound eicosanoid is separated form unbound eicosanoid by the addition of 750 μl of dextran (0.4%)-coated charcoal (0.4% Norit A) containing 0.1% sodium azide. The mixture is centrifuged at 2000 RPM at 5° C. for 15 minutes to pellet the charcoal and adsorbed unbound eicosanoid. Antibody-bound labeled eicosanoid is quantitated by counting in a liquid scintillation counter, and is correlated to concentration by a standard curve.
as §3

As usually defined, the inhibition is the percentage by which the read-out fell short of the control. Regarding `CCCCCCOc1ccc2cc(C(C)C(=O)O)ccc2c1` (stereo not drawn) [Example 10, α-Methyl-6-(hexyloxy)-2-naphthaleneacetic acid], in assay [1], the “% Inhibition of CO (as PGE2)” value is -5%. In addition, in assay [2], the “% of Rats With Lesions” value is listed as 37.5% and the “Comments (protection)” value is on record as “protection”. The inhibition at 10 µM in assay [3] is 81%.
A word on the % Inhibition: it is the share of the control response that was lost under treatment. As for `CC(C(=O)O)c1ccc2cc(OCc3ccccn3)ccc2c1` (stereo not drawn) [Example 4, α-Methyl-6-(2-pyridinylmethoxy)-2-naphthaleneacetic acid], the “% Inhibition at 50 mg/kg (peroral)” value in assay [4] worked out at 30%. Also, in assay [1], the “% Inhibition of CO (as TxB2)” value was 12% and the “% Inhibition of CO (as PGE2)” value was found to be 18%. Moreover, in assay [5], the “% Inhibition (LTD4-induced bronchospasm)” value amounted to 52%. The inhibition at 10 µM in assay [3] turned out to be 82%.
For the molecule `CCCCOc1ccc2cc(C(C)C(=O)O)ccc2c1` (stereo not drawn) [Example 11, α-Methyl-6-(butyloxy)-2-naphthaleneacetic acid], the “% Inhibition of CO (as PGE2)” value in assay [1] was -3%. Also, in assay [2], the “% of Rats With Lesions” value is on record as 50.0% and the “Comments (protection)” value is on record as “moderate protection”. Further, the inhibition at 10 µM in assay [3] came out at 28%.
Take `COc1ccc2c(c1)c(CC(=O)O)c(C)n2C(=O)c1ccc(Cl)cc1` [Indomethacin]: the “Oral ED50 (95% C.L.)” value in assay [4] (oral, 95% C.L. in parentheses, 180 min) is recorded as 3.7 (0.6, 23.8) mg/kg. Further, the “% Inh Cellular Influx” value in assay [6] (8 mg/kg p.o.) was found to be 19%. For the same molecule, the “ED30 Fluid Exudation” value in assay [6] (p.o.) is reported as 2.5 mg/kg. For the same molecule, the “% Inh LTB4” value in assay [7] (4 mg/kg p.o.) came out at 12%. Also, the “ED50 TxB2” value in assay [7] (p.o., 1 hour prior to anti-BSA, 5 min) was determined as 0.16 mg/kg.
Take `CC(C(=O)O)c1ccc2cc(OCc3ccc4ccccc4n3)ccc2c1` (stereo not drawn) [Example 1, α-Methyl-6-(2-quinolinylmethoxy)-2-naphthaleneacetic acid]: in assay [4], the “% Inhibition at 50 mg/kg (peroral)” value came out at 42%. In assay [1], the “% Inhibition of CO (as TxB2)” value is reported as 28% and the “% Inhibition of CO (as PGE2)” value was -37%. In addition, in assay [5], the “% Inhibition (LTD4-induced bronchospasm)” value is given as 75%. Besides, the inhibition at 10 µM in assay [3] came out at 100%.
The like results for `CC(C(=O)O)c1ccc2cc(OCc3nc4ccccc4n3C)ccc2c1` (stereo not drawn) [Example 3, α-Methyl-6-[(1-methyl-1H-benzimidazol-2-yl)-methoxy]-2-naphthaleneacetic acid] were, in that order, 32%, 15%, -29%, 80% and 24%.

Values taken from patent US5208344A, “Naphthalenepropionic acid derivatives as anti-inflammatory/antiallergic agents” (American Home Products Corporation, priority 1991, dated 1993).
